Results taken from PMC7815984 (Biochemical and biophysical research communications, 2020).

Assays:
[1] = target: TBD (residues 319–425 of human CRBN) (Homo sapiens, UniProt Q96SW2); assay type: binding; conditions: competitive MST
[2] = system: Human Umbilical Vein Endothelial Cells (HUVECs); assay: Endothelial cell tube formation assay
[3] = system: rat aortic ring microvessel outgrowth; assay: Rat aortic ring assay of angiogenesis; assay type: cell-based, Sprague Dawley rats
[4] = system: Human Umbilical Vein Endothelial Cells (HUVECs); conditions: 12.5–100 μM; cited from earlier work

Chain of TBD (residues 319–425 of human CRBN) (Q96SW2 319-425): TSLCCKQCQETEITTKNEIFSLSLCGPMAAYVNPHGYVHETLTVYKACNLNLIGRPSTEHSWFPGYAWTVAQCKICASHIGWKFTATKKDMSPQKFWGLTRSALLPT

Compound: CC(C)N1C(=O)NC(=O)C(C)(NC(=O)c2ccccc2)C1=O (stereo not shown) [Gu3407, N-(1-Isopropyl-5-methyl-2,4,6-trioxo-hexahydropyrimidin-5-yl)benzamide]
- binding to TBD of human CRBN (in words) [1]: did not show any binding
- inhibition of tube formation at initial screening dose (in words) ([2]; 10 μM, HUVECs, 18 hours): no inhibition
- inhibition of tube formation over concentration range (in words) ([2]; 10–100 μM, HUVECs): no significant inhibition

Compound: O=C1c2c(F)c(F)c(F)c(F)c2C(=O)N1c1ccc(F)cc1F [CPS49]
- inhibition of tube formation compared with vehicle control (positive control) ([2]; 30 μM CPS49, HUVECs, 18 hours): 89%

Compound: O=C1CCC(N2C(=O)c3c(F)c(F)c(F)c(F)c3C2=O)C(=O)N1 (stereo not shown) [Gu3041, 2-(2,6-Dioxo-3-piperidyl)-4,5,6,7-tetrafluoro-isoindoline-1,3-dione]
- tube formation over concentration range (in words) ([2]; 0.1–10 μM, HUVECs): reduced tube formation in a concentration-dependent manner

Compound: CO[C@@H]1[C@H](OC(=O)NC(=O)CCl)CC[C@]2(CO2)[C@H]1[C@@]1(C)O[C@@H]1CC=C(C)C [TNP-470]
- suppression of angiogenesis (positive control) ([3]; 50 μM TNP-470, 4 days): 92%

Compound: O=C1CCC(N2C(=O)c3ccccc3C2=O)C(=O)N1 (stereo not shown) [Thalidomide, 2-phthalimidinoglutarimide]
- tube formation, previous results (in words) [4]: failed to significantly block tube formation
- microvessel outgrowth (in words) ([3]; 100 μM, 4 days): not significantly blocked
- antiangiogenic activity in tube formation (in words) ([2]; 100 μM, HUVECs): did not demonstrate potent antiangiogenic activity

Compound: NC(=O)c1nnn(Cc2cc(Cl)c(C(=O)c3ccc(Cl)cc3)c(Cl)c2)c1N [CAI, carboxyamidotriazole]
- suppression of angiogenesis (positive control) ([3]; 30 μM CAI, 4 days): 95%
